Read-outs that look alike come from different tables or passages of the source.
Tests used:
[1] = in vivo; cited from earlier work
[2] = human, in vivo
Description: (§1) The subjects were randomized 24 h in advance in one of the two following groups. Group A: at least 10 h after fasting, oral flumatinib administration of 400 mg (2 tablets, day 1, first dose); the washout period was 14 days, half an hour after high-fat diet (timed from the start of diet) oral flumatinib administration of 400 mg (2 tablets, day 15,second dose). Subjects in group B followed the opposite administration sequence from those in group A. In groups A and B, the high-fat diet contained 800 ~ 1000Kcal (about 50% from fat) (meal composition is detailed Table 1).
(§2) Blood samples for pharmacokinetic (PK) evaluation were collected at 0 h before the initiation of dosing (pre-dose), and at 0.5, 1, 1.5, 2, 2.5, 3, 4, 5, 6, 8, 10, 12, 24, 48, 72, and 96 h after dosing. Blood samples were centrifuged at 2000g for 10 min at 4 ℃. Centrifugation was completed within 60 min after sample collection. The plasma was stored at − 70 °C for further analysis. Plasma concentrations of flumatinib and its main metabolites (M1 and M3) were determined using liquid chromatography-mass spectrometry (LC–MS/MS) [20].
(§3) Phoenix WinNonlin Version 7.0 (Pharsight Corporation, Sunnyvale, CA, USA) software was used to calculate the pharmacokinetic parameters (Tmax, Cmax, AUC0–t, AUC0–∞, t1/2, V/F, CL/F) of flumatinib and its main metabolites using a non-compartmental method (NCA module). Linear Up Log Down trapezoidal method was used for AUC calculation. The BE module of WinNonLin was used to analyze AUC0–t, AUC0–∞, and Cmax of flumatinib in fed and fasting states after logarithmic conversion. The treatment group (fasting, high-fat diet), the treatment sequence (A, B), and treatment phase were fixed effects in the model, and the subjects nested in the sequence were random effects. The adjusted mean difference (fasting/high-fat diet) and its 90% confidence interval estimated by the model, were taken as the negative number to obtain the corresponding PK parameter geometric mean ratio (postprandial/fasting), to estimate its 90% confidence interval, and to evaluate the effect of a high-fat diet on the pharmacokinetics of flumatinib.

[3] = preclinical studies; tissue drug concentration higher than plasma concentration; cited from earlier work
[4] = design: method as in PMID 20703259; details: doses in the range of 200–1000 mg; cited from earlier work
[5] = rats, oral administration, preclinical studies; cited from earlier work
[6] = Biopharmaceutics Classification System (BCS) class; type: physicochemical; details: based on the BCS Guidance of the year 2000
[7] = beagles, oral administration, preclinical studies; cited from earlier work
[8] = Pharmacokinetics of flumatinib, M1 and M3 in plasma after a single oral 400 mg dose of flumatinib mesylate tablets, fasting vs high-fat diet (LC-MS/MS, non-compartmental); details: for AUC0-∞ LSGM ratio high-fat diet/fasting (%) (90% CI) / AUC0–t LSGM ratio high-fat diet/fasting (%) (90% CI) / Cmax LSGM ratio high-fat diet/fasting (%) (90% CI): N = 11, single oral 400 mg; for AUC(0-inf) / AUC(0-t) / Cmax / MRT / Tmax / half-life: human, po, 400 mg; for Tmax: Tmax median(range)
Description: as §1, §2, §3

[9] = Safety evaluation (adverse events, NCI CTCAE v4.03) after a single oral 400 mg dose of flumatinib mesylate; type: in vivo, human (healthy Chinese subjects); design: TEAE, Incidence rate / TEAE related to the study drug, Incidence rate / SAE related to the study drug, Incidence rate / TEAE related to death, Incidence rate / TEAE related to withdrawal, Incidence rate: unit not given here
Description: All subjects who participated in the study were included in the safety analysis. Safety was evaluated by vital signs, physical examination, ECG, laboratory examination, adverse events (AEs), and combined medication. All adverse events that occurred during the trial were classified into mild, moderate and severe levels based on NCI CTCAE v4.03.

[10] = Fasting (N = 11), mean ± SD, single oral 400 mg, listed as Flumatinib
[11] = High-fat diet (N = 12), mean ± SD, single oral 400 mg
[12] = High-fat diet (N = 12), mean ± SD, single oral 400 mg, listed as Flumatinib
[13] = Fasting, the first period (N = 6)
[14] = Fasting, the second period (N = 5)
[15] = High-fat diet, the first period (N = 6)
[16] = High-fat diet, the second period (N = 6)

## Cc1ncc(NC(=O)c2ccc(CN3CCNCC3)c(C(F)(F)F)c2)cc1Nc1nccc(-c2cccnc2)n1 [M1, N-desmethyl flumatinib]
[1]
  Metabolite in plasma relative to the parent drug in plasma: approximately 10%
[2]
  AUC0–t: 231 ± 101 ng·h/mL
  Cmax: 54.7 ± 25.5 ng/mL
[2]; po, 400 mg
  Increase of AUC0–t after high-fat diet over fasted state: 1.6 fold
  Increase of AUC0–∞ after high-fat diet over fasted state: 1.6 fold
  Increase of Cmax after high-fat diet over fasted state: 1.9 fold

## Cc1ncc(NC(=O)c2ccc(CN3CCN(C)CC3)c(C(F)(F)F)c2)cc1Nc1nccc(-c2cccnc2)n1 [flumatinib]
[3]
  Tissue distribution: widely distributed in tissues
[4]
  Dose relation of Cmax and AUC0–t: linearly related to doses
[5]
  Time to maximum blood concentration: about 5 h
[6]
  BCS class: BCS Class III
[7]
  Time to maximum blood concentration: about 5 h
[8]; Fasting (N = 11), mean ± SD, single oral 400 mg
  CL/F: 399 ± 229 L/h
[8]; [10]
  CL/F: 661 ± 380 L/h
  V/F: 11,700 ± 5130 L
[8]; [11]
  CL/F: 661 ± 380 L/h
  V/F: 11700 ± 5130 L
[8]; [12]
  CL/F: 399 ± 229 L/h
  V/F: 8470 ± 4130 L
[8]
  AUC0-∞ LSGM ratio high-fat diet/fasting (%) (90% CI): 166.87%
  AUC0–t LSGM ratio high-fat diet/fasting (%) (90% CI): 167.43%
  Cmax LSGM ratio high-fat diet/fasting (%) (90% CI): 281.65%
[8]; listed as Flumatinib
  AUC0-∞ LSGM ratio high-fat diet/fasting (%) (90% CI): 167 (143, 194) %
  AUC0–t LSGM ratio high-fat diet/fasting (%) (90% CI): 167 (144, 195) %
  Cmax LSGM ratio high-fat diet/fasting (%) (90% CI): 282 (226, 351) %
[8]; plasma, AUC0-∞ (least-square geometric mean), Fasting (N = 11), food-effect analysis, single oral 400 mg
  AUC(0-inf): 710 ng·h/mL
[8]; plasma, AUC0-∞ (least-square geometric mean), High-fat diet (N = 11), food-effect analysis, single oral 400 mg
  AUC(0-inf): 1180 ng·h/mL
[8]; plasma, AUC0-∞, Fasting (N = 11), mean ± SD, single oral 400 mg
  AUC(0-inf): 847 ± 572 ng·h/mL
[8]; plasma, AUC0-∞, High-fat diet (N = 12), mean ± SD, single oral 400 mg
  AUC(0-inf): 1280 ± 586 ng·h/mL
[8]; plasma, AUC0–t (least-square geometric mean), Fasting (N = 11), food-effect analysis, single oral 400 mg
  AUC(0-t): 696 ng·h/mL
[8]; plasma, AUC0–t (least-square geometric mean), High-fat diet (N = 11), food-effect analysis, single oral 400 mg
  AUC(0-t): 1170 ng·h/mL
[8]; plasma, AUC0–t, Fasting (N = 11), mean ± SD, single oral 400 mg
  AUC(0-t): 832 ± 566 ng·h/mL
[8]; plasma, AUC0–t, High-fat diet (N = 12), mean ± SD, single oral 400 mg
  AUC(0-t): 1260 ± 582 ng·h/mL
[8]; plasma, Cmax (least-square geometric mean), Fasting (N = 11), food-effect analysis, single oral 400 mg
  Cmax: 43.7 ng/mL
[8]; plasma, Cmax (least-square geometric mean), High-fat diet (N = 11), food-effect analysis, single oral 400 mg
  Cmax: 123 ng/mL
[8]; plasma, Cmax, Fasting (N = 11), mean ± SD, single oral 400 mg
  Cmax: 50.7 ± 32.5 ng/mL
[8]; plasma, Cmax, High-fat diet (N = 12), mean ± SD, single oral 400 mg
  Cmax: 132 ± 54.5 ng/mL
[8]; plasma, Fasting (N = 11), mean ± SD, single oral 400 mg
  MRT: 17.2 ± 3.66 h
[8]; plasma, High-fat diet (N = 12), mean ± SD, single oral 400 mg
  MRT: 19.2 ± 3.37 h
[8]; plasma, Fasting (N = 11), single oral 400 mg
  Tmax: 2.5 h
[8]; plasma, High-fat diet (N = 12), single oral 400 mg
  Tmax: 3 h
[8]; plasma, t1/2, Fasting (N = 11), mean ± SD, single oral 400 mg
  half-life: 13.3 ± 2.52 h
[8]; plasma, t1/2, High-fat diet (N = 12), mean ± SD, single oral 400 mg
  half-life: 15.5 ± 4.67 h
[8]; single oral 400 mg
  Increase in the exposure when taken with food: 67%
[8]; single oral 400 mg, plasma
  Increase of AUC0–∞ after high-fat diet over fasted state: 1.6 fold
  Increase of Cmax after high-fat diet over fasted state: nearly tripled
[9]; [13]
  SAE related to the study drug, Incidence rate: 0.0
  SAE related to the study drug, Number: 0
  SAE related to the study drug, Time: 0
  TEAE related to death, Incidence rate: 0.0
  TEAE related to death, Number: 0
  TEAE related to death, Time: 0
  TEAE related to the study drug, Incidence rate: 83.3
  TEAE related to the study drug, Number: 5
  TEAE related to the study drug, Time: 11
  TEAE related to withdrawal, Incidence rate: 0.0
  TEAE related to withdrawal, Number: 0
  TEAE related to withdrawal, Time: 0
  TEAE, Incidence rate: 100.0
  TEAE, Number: 6
  TEAE, Time: 14
[9]; [14]
  SAE related to the study drug, Incidence rate: 0.0
  SAE related to the study drug, Number: 0
  SAE related to the study drug, Time: 0
  TEAE related to death, Incidence rate: 0.0
  TEAE related to death, Number: 0
  TEAE related to death, Time: 0
  TEAE related to the study drug, Incidence rate: 60.0
  TEAE related to the study drug, Number: 3
  TEAE related to the study drug, Time: 4
  TEAE related to withdrawal, Incidence rate: 0.0
  TEAE related to withdrawal, Number: 0
  TEAE related to withdrawal, Time: 0
  TEAE, Incidence rate: 60.0
  TEAE, Number: 3
  TEAE, Time: 5
[9]; Fasting, total (N = 11)
  SAE related to the study drug, Incidence rate: 0.0
  SAE related to the study drug, Number: 0
  SAE related to the study drug, Time: 0
  TEAE related to death, Incidence rate: 0.0
  TEAE related to death, Number: 0
  TEAE related to death, Time: 0
  TEAE related to the study drug, Incidence rate: 72.7
  TEAE related to the study drug, Time: 15
  TEAE related to withdrawal, Incidence rate: 0.0
  TEAE related to withdrawal, Number: 0
  TEAE related to withdrawal, Time: 0
  TEAE, Incidence rate: 81.8
  TEAE, Time: 19
[9]; [15]
  SAE related to the study drug, Incidence rate: 0.0
  SAE related to the study drug, Number: 0
  SAE related to the study drug, Time: 0
  TEAE related to death, Incidence rate: 0.0
  TEAE related to death, Number: 0
  TEAE related to death, Time: 0
  TEAE related to the study drug, Incidence rate: 50.0
  TEAE related to the study drug, Number: 3
  TEAE related to the study drug, Time: 6
  TEAE related to withdrawal, Incidence rate: 16.7
  TEAE related to withdrawal, Number: 1
  TEAE related to withdrawal, Time: 1
  TEAE, Incidence rate: 100.0
  TEAE, Number: 6
  TEAE, Time: 18
[9]; [16]
  SAE related to the study drug, Incidence rate: 0.0
  SAE related to the study drug, Number: 0
  SAE related to the study drug, Time: 0
  TEAE related to death, Incidence rate: 0.0
  TEAE related to death, Number: 0
  TEAE related to death, Time: 0
  TEAE related to the study drug, Incidence rate: 66.7
  TEAE related to the study drug, Number: 4
  TEAE related to the study drug, Time: 6
  TEAE related to withdrawal, Incidence rate: 0.0
  TEAE related to withdrawal, Number: 0
  TEAE related to withdrawal, Time: 0
  TEAE, Incidence rate: 66.7
  TEAE, Number: 4
  TEAE, Time: 7
[9]; High-fat diet, total (N = 12)
  SAE related to the study drug, Incidence rate: 0.0
  SAE related to the study drug, Number: 0
  SAE related to the study drug, Time: 0
  TEAE related to death, Incidence rate: 0.0
  TEAE related to death, Number: 0
  TEAE related to death, Time: 0
  TEAE related to the study drug, Incidence rate: 58.3
  TEAE related to the study drug, Time: 12
  TEAE related to withdrawal, Incidence rate: 8.3
  TEAE related to withdrawal, Number: 1
  TEAE related to withdrawal, Time: 1
  TEAE, Incidence rate: 83.3
  TEAE, Time: 25
[9]; fasting group
  TEAE incidence: 81.8%
  TEAE related to the study drug, incidence: 72.7%
[9]; high-fat diet group
  TEAE incidence: 83.3%
  TEAE related to the study drug, incidence: 58.3%
[9]; single oral dose of 400 mg, fasting or high-fat diet
  Safety and tolerability: safe and well tolerated
